Calls of active or inactive are those of the source.
What was measured:
[1] = biological target: T1, Carboxy-terminal domain RNA polymerase II polypeptide A small phosphatase 1 (Homo sapiens, UniProt Q9GZU7); assay: inhibitors of CTDSP1, concentration-response testing, biochemical assay, absorbance-based, actives from ultra-high-throughput screening (AID 540297); assay type: functional
T1 sequence (Q9GZU7 whole entry): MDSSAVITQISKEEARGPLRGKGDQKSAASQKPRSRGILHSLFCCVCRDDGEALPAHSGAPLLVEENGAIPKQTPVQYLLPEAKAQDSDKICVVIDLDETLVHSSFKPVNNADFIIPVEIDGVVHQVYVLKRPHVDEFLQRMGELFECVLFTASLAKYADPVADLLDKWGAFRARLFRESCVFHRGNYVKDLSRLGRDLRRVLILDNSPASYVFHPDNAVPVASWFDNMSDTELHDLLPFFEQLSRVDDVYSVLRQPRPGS

Cytochrome P450 2D6 [2] = biological target: T2, Cytochrome P450 2D6 (Homo sapiens, UniProt P10635);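 further: CYP2D6 member of a cytochrome P450 panel assay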
T2 sequence (P10635 whole entry): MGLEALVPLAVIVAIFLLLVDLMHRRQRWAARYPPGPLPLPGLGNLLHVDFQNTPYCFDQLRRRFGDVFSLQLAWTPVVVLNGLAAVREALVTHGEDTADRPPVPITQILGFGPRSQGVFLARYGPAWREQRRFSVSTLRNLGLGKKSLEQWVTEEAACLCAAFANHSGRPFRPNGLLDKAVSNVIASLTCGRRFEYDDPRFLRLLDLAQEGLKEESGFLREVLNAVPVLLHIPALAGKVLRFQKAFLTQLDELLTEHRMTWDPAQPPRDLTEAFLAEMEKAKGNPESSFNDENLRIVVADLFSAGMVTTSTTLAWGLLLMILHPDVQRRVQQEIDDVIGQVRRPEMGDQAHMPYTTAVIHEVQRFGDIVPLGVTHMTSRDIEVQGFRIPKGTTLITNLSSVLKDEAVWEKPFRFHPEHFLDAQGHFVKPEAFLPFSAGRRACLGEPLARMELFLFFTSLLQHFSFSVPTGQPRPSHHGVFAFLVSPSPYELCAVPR

P388 = assay: cells; assay type: functional; conditions: Mus musculus
SN12K1 = assay: cells; assay type: functional; conditions: Homo sapiens
P388/ADR = assay: cells; assay type: functional; conditions: Mus musculus
Cytochrome P450 1A2 = biological target: T3, Cytochrome P450 1A2 (Homo sapiens, UniProt P05177);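 further: PubChem cytochrome P450 panel assay, CYP1A2 panel member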
T3 sequence (P05177 whole entry): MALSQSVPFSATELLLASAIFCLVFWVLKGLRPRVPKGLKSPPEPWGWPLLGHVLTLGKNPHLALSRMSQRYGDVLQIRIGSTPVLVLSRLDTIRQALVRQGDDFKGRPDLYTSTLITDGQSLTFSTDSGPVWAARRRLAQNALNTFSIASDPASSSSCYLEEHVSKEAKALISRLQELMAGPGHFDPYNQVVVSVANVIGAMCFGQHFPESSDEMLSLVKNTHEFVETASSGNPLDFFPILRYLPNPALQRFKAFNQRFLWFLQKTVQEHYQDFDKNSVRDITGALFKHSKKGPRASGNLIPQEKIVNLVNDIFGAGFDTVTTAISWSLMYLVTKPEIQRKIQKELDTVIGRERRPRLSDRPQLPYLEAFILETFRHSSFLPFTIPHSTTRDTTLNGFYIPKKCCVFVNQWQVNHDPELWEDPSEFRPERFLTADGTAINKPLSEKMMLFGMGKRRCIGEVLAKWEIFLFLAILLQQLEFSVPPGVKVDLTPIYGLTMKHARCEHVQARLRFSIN

[3] = biological target: T4, Heat shock factor protein 1 (Mus musculus, UniProt P38532); assay: HSF1 potentiators in luciferase reporter cells, confirmation, cell-based, NIH3T3, luminescence, dose retest (AID 435004); assay type: functional;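 further: stress induced by proteasome inhibitor MG132 added 30 min after compound; luciferase reporter driven by HSF1 response element in NIH3T3 cells; actives raise luminescence as potentiators of the MG132 stress response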
T4 sequence (P38532 whole entry): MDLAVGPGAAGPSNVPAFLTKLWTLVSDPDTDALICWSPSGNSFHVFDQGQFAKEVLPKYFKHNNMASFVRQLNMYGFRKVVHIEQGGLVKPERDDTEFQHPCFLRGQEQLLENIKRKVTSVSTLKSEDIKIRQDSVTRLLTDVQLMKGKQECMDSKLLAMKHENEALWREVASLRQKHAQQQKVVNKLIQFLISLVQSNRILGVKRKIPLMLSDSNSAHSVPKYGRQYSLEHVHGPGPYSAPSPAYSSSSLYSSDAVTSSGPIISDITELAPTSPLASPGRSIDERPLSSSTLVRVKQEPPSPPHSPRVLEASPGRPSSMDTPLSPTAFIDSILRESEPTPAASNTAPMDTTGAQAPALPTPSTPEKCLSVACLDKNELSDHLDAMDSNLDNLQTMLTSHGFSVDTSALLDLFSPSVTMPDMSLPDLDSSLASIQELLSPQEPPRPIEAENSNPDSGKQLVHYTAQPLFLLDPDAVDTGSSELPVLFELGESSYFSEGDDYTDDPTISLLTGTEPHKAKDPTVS

Cytochrome P450 3A4 = Cytochrome P450 3A4 (Homo sapiens, UniProt P08684);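 further: CYP3A4 tested as one member of a cytochrome P450 panel screen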
Chain of Cytochrome P450 3A4 (P08684 whole entry): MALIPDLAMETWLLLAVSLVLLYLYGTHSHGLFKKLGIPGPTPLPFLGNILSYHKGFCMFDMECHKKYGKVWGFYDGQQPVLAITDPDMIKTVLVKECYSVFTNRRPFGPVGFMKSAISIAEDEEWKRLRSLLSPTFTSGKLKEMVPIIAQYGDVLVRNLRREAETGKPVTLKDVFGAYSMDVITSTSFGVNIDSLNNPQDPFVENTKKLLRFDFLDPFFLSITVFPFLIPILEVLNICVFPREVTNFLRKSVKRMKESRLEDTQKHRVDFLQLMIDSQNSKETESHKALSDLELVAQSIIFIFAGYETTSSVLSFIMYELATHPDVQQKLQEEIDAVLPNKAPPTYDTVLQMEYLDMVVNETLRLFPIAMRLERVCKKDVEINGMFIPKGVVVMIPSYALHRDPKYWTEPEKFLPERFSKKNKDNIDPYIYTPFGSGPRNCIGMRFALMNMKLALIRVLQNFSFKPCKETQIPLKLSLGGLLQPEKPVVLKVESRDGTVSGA

Cytochrome P450 2D6 [4] = biological target: T2, Cytochrome P450 2D6; remark: listed apart in the source
Cytochrome P450 2C19 = Cytochrome P450 2C19 (Homo sapiens, UniProt P33261); assay: Cytochrome panel assay with activity outcomes. Panel member name: p450-cyp2c19 Compounds with AC50 equal or less than 10 uM are considered active; assay type: functional
Chain of Cytochrome P450 2C19 (P33261 whole entry): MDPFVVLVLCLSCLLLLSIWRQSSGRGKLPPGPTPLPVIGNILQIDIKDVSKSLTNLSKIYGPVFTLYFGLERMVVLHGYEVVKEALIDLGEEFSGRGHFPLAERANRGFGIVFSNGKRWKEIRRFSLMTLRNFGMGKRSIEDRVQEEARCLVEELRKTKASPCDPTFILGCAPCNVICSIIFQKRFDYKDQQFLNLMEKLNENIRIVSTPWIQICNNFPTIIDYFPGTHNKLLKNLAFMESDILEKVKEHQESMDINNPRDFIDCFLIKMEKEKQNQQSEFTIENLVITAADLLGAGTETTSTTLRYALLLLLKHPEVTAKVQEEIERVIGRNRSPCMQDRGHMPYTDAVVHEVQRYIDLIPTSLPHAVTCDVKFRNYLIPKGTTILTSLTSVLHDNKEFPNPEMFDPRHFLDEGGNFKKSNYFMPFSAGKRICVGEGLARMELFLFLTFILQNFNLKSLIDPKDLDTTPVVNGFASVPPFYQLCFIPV

[5] = biological target: Glucose-6-phosphate 1-dehydrogenase (Homo sapiens, UniProt P11413); assay: human G6PD enzyme inhibitors, dose response, selectivity assay for P. falciparum G6PD inhibitor project, biochemical, fluorescence (AID 504792); assay type: functional
Chain of Glucose-6-phosphate 1-dehydrogenase (P11413 whole entry): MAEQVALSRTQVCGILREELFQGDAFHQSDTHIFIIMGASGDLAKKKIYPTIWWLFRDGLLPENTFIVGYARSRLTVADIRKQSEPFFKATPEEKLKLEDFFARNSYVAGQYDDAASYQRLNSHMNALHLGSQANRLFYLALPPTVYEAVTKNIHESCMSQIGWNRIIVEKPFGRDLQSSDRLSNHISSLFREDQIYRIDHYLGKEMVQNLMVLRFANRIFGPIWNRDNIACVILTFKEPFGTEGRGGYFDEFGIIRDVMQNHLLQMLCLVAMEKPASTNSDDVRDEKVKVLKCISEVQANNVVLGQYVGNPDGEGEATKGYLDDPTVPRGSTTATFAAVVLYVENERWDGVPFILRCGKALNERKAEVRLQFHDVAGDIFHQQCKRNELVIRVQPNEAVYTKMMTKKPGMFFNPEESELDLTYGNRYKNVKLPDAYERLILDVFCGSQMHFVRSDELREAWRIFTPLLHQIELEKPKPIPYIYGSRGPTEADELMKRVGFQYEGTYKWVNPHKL

[6] = biological target: T5, Alkaline phosphatase, tissue-nonspecific isozyme (Homo sapiens, UniProt P05186); assay: human TNAP enzyme inhibitors, SAR follow-up, biochemical, luminescent, dose response (AID 1056)
T5 sequence (P05186 whole entry): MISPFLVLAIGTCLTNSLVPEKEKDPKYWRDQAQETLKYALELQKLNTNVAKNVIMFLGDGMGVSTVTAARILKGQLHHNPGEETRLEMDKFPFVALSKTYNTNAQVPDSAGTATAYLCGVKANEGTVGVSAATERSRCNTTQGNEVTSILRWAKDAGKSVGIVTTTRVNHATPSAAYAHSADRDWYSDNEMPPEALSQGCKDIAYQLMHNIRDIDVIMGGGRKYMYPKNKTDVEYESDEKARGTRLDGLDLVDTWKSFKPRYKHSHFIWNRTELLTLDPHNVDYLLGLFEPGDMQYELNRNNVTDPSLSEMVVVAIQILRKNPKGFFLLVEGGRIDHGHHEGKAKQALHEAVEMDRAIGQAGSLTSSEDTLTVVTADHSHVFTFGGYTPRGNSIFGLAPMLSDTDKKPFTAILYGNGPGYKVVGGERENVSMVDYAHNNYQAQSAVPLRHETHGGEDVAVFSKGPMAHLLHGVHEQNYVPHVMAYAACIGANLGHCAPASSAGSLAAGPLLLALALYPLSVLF

[7] = biological target: Alkaline phosphatase, placental type (Homo sapiens, UniProt P05187); assay: PLAP enzyme inhibitors, confirmation, biochemical, luminescence (AID 1512); assay type: functional
Chain of Alkaline phosphatase, placental type (P05187 whole entry): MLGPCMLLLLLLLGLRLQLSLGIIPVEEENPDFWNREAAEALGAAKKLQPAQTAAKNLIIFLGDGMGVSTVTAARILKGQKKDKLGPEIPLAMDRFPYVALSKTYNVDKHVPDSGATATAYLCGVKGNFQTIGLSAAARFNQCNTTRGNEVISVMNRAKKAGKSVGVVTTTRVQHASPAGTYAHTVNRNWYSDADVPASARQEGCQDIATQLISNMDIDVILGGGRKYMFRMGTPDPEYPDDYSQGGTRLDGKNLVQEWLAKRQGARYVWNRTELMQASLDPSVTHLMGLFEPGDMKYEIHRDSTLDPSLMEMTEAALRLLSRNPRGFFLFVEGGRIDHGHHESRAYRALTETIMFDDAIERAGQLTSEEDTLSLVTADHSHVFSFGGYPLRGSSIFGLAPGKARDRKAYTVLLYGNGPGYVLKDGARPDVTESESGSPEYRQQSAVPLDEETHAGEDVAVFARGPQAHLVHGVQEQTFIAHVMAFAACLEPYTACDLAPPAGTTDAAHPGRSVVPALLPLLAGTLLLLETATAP

Cytochrome P450 2C9 = Cytochrome P450 2C9 (Homo sapiens, UniProt P11712)
Chain of Cytochrome P450 2C9 (P11712 whole entry): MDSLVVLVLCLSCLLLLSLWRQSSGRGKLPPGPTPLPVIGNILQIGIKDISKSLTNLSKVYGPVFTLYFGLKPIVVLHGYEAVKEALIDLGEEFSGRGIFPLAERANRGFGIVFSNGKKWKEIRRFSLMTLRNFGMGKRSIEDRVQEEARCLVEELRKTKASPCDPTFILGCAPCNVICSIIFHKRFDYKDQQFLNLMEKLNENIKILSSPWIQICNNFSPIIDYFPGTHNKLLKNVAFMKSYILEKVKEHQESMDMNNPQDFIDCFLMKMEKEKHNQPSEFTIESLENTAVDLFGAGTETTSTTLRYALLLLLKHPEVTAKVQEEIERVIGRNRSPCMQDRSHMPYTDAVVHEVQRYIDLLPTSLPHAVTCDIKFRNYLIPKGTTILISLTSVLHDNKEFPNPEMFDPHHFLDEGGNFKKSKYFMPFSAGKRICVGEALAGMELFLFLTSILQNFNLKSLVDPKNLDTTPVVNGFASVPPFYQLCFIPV

[8] = biological target: T6, Ubiquitin-conjugating enzyme E2 N (Homo sapiens, UniProt P61088); assay type: functional
T6 sequence (P61088 whole entry): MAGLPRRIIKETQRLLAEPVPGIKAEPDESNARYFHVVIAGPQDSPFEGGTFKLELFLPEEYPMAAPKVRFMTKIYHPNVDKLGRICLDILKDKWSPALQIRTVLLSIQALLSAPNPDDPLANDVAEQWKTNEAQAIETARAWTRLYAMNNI

Bcl-2-related protein A1 = biological target: T7, Bcl-2-related protein A1 (Mus musculus, UniProt Q07440); assay type: functional;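 further: confirmatory dose–response counterscreen on Bfl-1, used to check hits from a UBC13 polyubiquitin inhibitor campaign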
T7 sequence (Q07440 whole entry): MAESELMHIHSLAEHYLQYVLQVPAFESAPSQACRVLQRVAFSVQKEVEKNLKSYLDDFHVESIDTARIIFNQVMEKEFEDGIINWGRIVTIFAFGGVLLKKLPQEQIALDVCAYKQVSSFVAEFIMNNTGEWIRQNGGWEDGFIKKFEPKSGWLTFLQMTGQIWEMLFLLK

[9] = biological target: T6, Ubiquitin-conjugating enzyme E2 N; assay type: functional; remark: listed apart in the source
[10] = HEp-2 cell cytotoxicity, dose response, cytotoxicity control for RSV inhibitor project, HTS (AID 2410); assay type: functional; conditions: human respiratory syncytial virus
[11] = biological target: Dual specificity tyrosine-phosphorylation-regulated kinase 1A (Rattus norvegicus, UniProt Q63470); assay type: biochemical, Homo sapiens
[12] = biological target: DNA dC->dU-editing enzyme APOBEC-3G (Homo sapiens, UniProt Q9HC16); assay type: functional;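 further: Dose-response counterscreen measuring inhibition of APOBEC3G DNA deaminase activity, run while confirming APOBEC3A inhibitors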
Chain of DNA dC->dU-editing enzyme APOBEC-3G (Q9HC16 whole entry): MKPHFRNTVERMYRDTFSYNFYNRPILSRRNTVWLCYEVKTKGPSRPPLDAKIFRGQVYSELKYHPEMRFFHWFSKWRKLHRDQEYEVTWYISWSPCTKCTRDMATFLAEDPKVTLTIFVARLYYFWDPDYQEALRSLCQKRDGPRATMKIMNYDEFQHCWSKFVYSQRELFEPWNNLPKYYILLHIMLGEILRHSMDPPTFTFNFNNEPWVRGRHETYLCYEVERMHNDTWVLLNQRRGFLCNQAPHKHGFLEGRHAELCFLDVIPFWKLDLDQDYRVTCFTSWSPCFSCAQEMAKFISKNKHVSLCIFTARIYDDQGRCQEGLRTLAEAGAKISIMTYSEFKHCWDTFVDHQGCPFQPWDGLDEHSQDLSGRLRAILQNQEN

[13] = biological target: DNA dC->dU-editing enzyme APOBEC-3A (Homo sapiens, UniProt P31941); assay: Dose Response confirmation of small molecule APOBEC3A DNA Deaminase Inhibitors via a fluorescence-based single-stranded DNA deaminase assay. [Related pubchem assays (depositor defined):AID493011, AID493024]; assay type: functional
Chain of DNA dC->dU-editing enzyme APOBEC-3A (P31941 whole entry): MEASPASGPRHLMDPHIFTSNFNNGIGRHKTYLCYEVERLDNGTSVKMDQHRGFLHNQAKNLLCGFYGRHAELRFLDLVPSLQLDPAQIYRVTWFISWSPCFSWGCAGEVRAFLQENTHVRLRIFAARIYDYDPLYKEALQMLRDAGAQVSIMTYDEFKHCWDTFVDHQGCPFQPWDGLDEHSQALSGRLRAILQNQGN

[14] = Vero E6 cell cytotoxicity, dose response, cytotoxicity control for non-replicating M. tuberculosis project, secondary assay (AID 492998); assay type: functional, VeroE6; conditions: Vero C1008
cells = assay type: functional
[15] = tested on: Streptococcus sp. 'group A'; assay: growth inhibition of control SK(-) GAS strain, dose response, counter-screen for streptokinase expression inhibitor project, luminescence, kanamycin, BacTiterGlo, confirmation (AID 1900); assay type: functional, organism-based
[16] = THP-1 cell cytotoxicity, dose response, cytotoxicity control for non-replicating M. tuberculosis project (AID 489025); assay type: functional
Streptococcus = assay: Group A Streptococcus viability loss, dose response, counter-screen for streptokinase expression inhibitor project, luminescence, BacTiterGlo (AID 1915); assay type: functional, organism-based;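 further: potency for reduction of bacterial viability or growth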

COc1cc2c(cc1NC(=O)CSc1nc3ccccc3[nH]1)oc1ccccc12
IC50 [1]: 17.1 µM (active)

c1ccc2c(c1)nnn2CN1CCOCC1
AC50 (Cytochrome P450 2D6 [2]): inconclusive

CN(C)CCN1C(=O)c2cccc3cc(N)cc(c23)C1=O [AMONAFIDE]
GI50 (P388): 0.524 µM (active)
GI50 (SN12K1): 2.15 µM (inactive)
GI50 (P388/ADR): 1.14 µM (inactive)

O=C1CN(C(=O)c2ccc(Br)o2)C(c2ccc(F)cc2)c2cc(Cl)ccc2N1 (stereo unspecified)
AC50 (Cytochrome P450 1A2): 0.0631 µM (inconclusive)
EC50 [3]: > 260 µM (inactive)
AC50 (Cytochrome P450 3A4): inconclusive

Cc1ccc(/C=N/NC(=O)c2cccs2)cc1[N+](=O)[O-]
AC50 (Cytochrome P450 2D6 [4]): 0.0251 µM (inconclusive)
AC50 (Cytochrome P450 3A4): inconclusive
AC50 (Cytochrome P450 2C19; read-out: AC50): 31.6 µM (inconclusive)

O=C(CNC(=O)c1ccco1)OCC(=O)c1ccc([N+](=O)[O-])cc1
IC50 [5]: > 80 µM (inactive)

O/N=C/c1cc(Cl)ccc1OCc1cccc2ccccc12
IC50 [6]: > 100 µM (inactive)
IC50 [7]: > 100 µM (inactive)

COCCNC(=O)COC(=O)/C=C/c1cnc2ccccc2n1
AC50 (Cytochrome P450 2C9): 1.12 µM (inconclusive)
AC50 (Cytochrome P450 2D6 [2]): inconclusive

O=C(Nc1ccc(F)c(Cl)c1)C1CCN(c2ncnc3c2nc2n3CCCCC2)CC1
IC50 [8]: 8.53 µM (active)
IC50 (Bcl-2-related protein A1): > 20 µM (inactive)
IC50 [9]: 9.53 µM (active)

Cc1cnn(CC(=O)c2ccc(O)c(O)c2)c1
IC50 [6]: > 100 µM (inactive)
IC50 [7]: 2.13 µM (active)

CN(C)S(=O)(=O)c1ccc(NC(=O)Cc2ccc(S(=O)(=O)N3CCOCC3)s2)cc1
IC50 [1]: 9.34 µM (active)

COc1ccc(C(=O)N2CCC3(CC2)CCN(c2ncccn2)CC3)cc1
AC50 (Cytochrome P450 2D6 [4]): 20 µM (inconclusive)
AC50 (Cytochrome P450 3A4): inconclusive

CN1CCN(C(=O)C2CCN(c3ncnc4c3nc3n4CCCCC3)CC2)CC1
IC50 [8]: 3.51 µM (active)
IC50 (Bcl-2-related protein A1): > 20 µM (inactive)
IC50 [9]: 6.77 µM (active)

CC(C)c1ccc(/C=C2\SC(=O)N(CC(=O)NC3C=CS(=O)(=O)C3)C2=O)cc1 (stereo unspecified)
IC50 [1]: 11.8 µM (active)
CC50 [10]: 18.8 µM (active)

CCCCN.N#C/C(=C\c1ccc(O)cc1)C(=O)O
AC50 [11]: 3.24 µM (active)

C[C@H](N)C(=O)N[C@@H]1[C@H]2C(=C(O)C[C@@H](O)[C@@H]2O)C(=O)O[C@]1(C)C(Cl)Cl [BACTOBOLIN]
GI50 (P388): 0.0807 µM (active)
GI50 (SN12K1): 0.297 µM (active)
GI50 (P388/ADR): 0.303 µM (active)

CCC(C(=O)NC1CCCC1)N(C(=O)c1snc(C(N)=O)c1N)c1ccc2c(c1)OCCO2 (stereo unspecified)
IC50 [8]: 7.69 µM (active)
IC50 (Bcl-2-related protein A1): > 20 µM (inactive)
IC50 [9]: 5.82 µM (active)

CCN1C(NCCCCO)=N[C@@H](c2cccc(F)c2)C(C(=O)OC)=C1C
IC50 [12]: 5.05 µM (active)
IC50 [13]: 3.06 µM (active)

O=C1c2cccc3cccc(c23)C(=O)N1CC1CCN(CC(O)COCc2ccc3c(c2)OCO3)CC1 (stereo unspecified)
IC50 [8]: 3.25 µM (active)
IC50 (Bcl-2-related protein A1): > 20 µM (inactive)
IC50 [9]: 4.33 µM (active)

COC(=O)[C@](C)(N)Cc1ccc(O)cc1
AC50 (Cytochrome P450 3A4): inconclusive

CC1=CCCC2C1(C)CCC(C)C2(C)Cc1cc(O)ccc1O (stereo unspecified)
GI50 (P388): 1.37 µM (inactive)
GI50 (SN12K1): 4.2 µM (inactive)
GI50 (P388/ADR): 1.63 µM (inactive)

Cc1ccc(-c2csc(NC(=O)c3ccc(Br)cc3)c2C(=O)O)cc1
IC50 [5]: > 80 µM (inactive)

C[C@H](Br)CN(C[C@H](C)Br)c1ccc2c(c1)Cc1ccccc1-2
AC50 (Cytochrome P450 2D6 [2]): inconclusive

COC(=O)c1ccc(NC(=O)N2CCC(O)(c3cccnc3)CC2)cc1
AC50 (Cytochrome P450 2D6 [4]): 15.8 µM (inconclusive)
AC50 (Cytochrome P450 3A4): inconclusive
AC50 (Cytochrome P450 2C19): inconclusive

CC(=O)Nc1nnc(SCC(=O)NCCOc2ccccc2)s1
IC50 [12]: 5.12 µM (active)
IC50 [13]: 4.13 µM (active)

CC(C)CCC[C@@H](C)[C@@H]1CC[C@@H]2[C@H]3CC[C@H]4C[C@@H](N)CC[C@@]4(C)[C@@H]3CC[C@]21C
AC50 (Cytochrome P450 2C19): inconclusive
AC50 (Cytochrome P450 2D6 [2]): inconclusive

Cc1ccc(N(C(=O)c2snc(C(N)=O)c2N)C(C(=O)NC2CCCC2)c2ccco2)cc1 (stereo unspecified)
IC50 [8]: 8.18 µM (active)
IC50 (Bcl-2-related protein A1): > 20 µM (inactive)
IC50 [9]: 13.3 µM (active)

CCC(CC)c1nnc(NC(=O)c2ccc3ccccc3n2)s1
CC50 [14]: 18.4 µM (active)
IC50 (cells): 0.42 µM (active)
EC50 [15]: 8.53 µM (active)
AC50 (Cytochrome P450 1A2): 2.51 µM (active)
AC50 (Cytochrome P450 2C9): 7.94 µM (active)
CC50 [16]: > 40 µM (active)
EC50 (Streptococcus): 12.5 µM (active)
AC50 (Cytochrome P450 2C19; read-out: AC50): 28.2 µM (active)
AC50 (Cytochrome P450 2D6 [2]): inactive
